ChEMBL document CHEMBL1821548, “Structure selectivity relationship studies of 17-cyclopropylmethyl-3,14β-dihydroxy-4,5α-epoxy-6β-[(4'-pyridyl)carboxamido]morphinan derivatives toward the development of the mu opioid receptor antagonists” (Bioorg Med Chem Lett, 2011)

Assays:
[1] = Selectivity ratio of Ki for kappa opioid receptor to Ki for mu opioid receptor
[2] = Selectivity ratio of Ki for delta opioid receptor to Ki for mu opioid receptor
Mu-type opioid receptor [3] = molecular target: T1, Mu-type opioid receptor (Homo sapiens, UniProt P35372); assay: Displacement of [3H]naloxone from mu opioid receptor expressed in CHO cells after 1 hr; format: cell-based
T1 sequence (P35372 whole entry): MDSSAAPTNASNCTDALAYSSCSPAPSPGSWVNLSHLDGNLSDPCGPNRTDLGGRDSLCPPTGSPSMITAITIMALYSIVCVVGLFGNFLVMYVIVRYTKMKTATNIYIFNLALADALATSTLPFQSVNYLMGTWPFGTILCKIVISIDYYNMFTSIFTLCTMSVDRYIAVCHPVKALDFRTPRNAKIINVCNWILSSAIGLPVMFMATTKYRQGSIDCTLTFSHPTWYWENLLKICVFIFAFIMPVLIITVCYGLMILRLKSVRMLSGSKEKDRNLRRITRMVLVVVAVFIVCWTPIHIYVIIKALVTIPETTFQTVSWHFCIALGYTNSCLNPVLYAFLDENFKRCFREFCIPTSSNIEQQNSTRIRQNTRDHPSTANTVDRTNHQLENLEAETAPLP

Mu-type opioid receptor [4] = molecular target: T1, Mu-type opioid receptor; assay: Agonist activity against mu opioid receptor expressed in CHO cells assessed as stimulation of [35S]-GTPgammaS binding relative to DAMGO; format: functional, cell-based
Mu-type opioid receptor [5] = molecular target: T1, Mu-type opioid receptor; assay: Agonist activity against mu opioid receptor expressed in CHO cells assessed as stimulation of [35S]-GTPgammaS binding; format: functional, cell-based
[6] = molecular target: Kappa-type opioid receptor (Homo sapiens, UniProt P41145); assay: Displacement of [3H]-norBNI from kappa opioid receptor expressed in CHO cells after 1 hr; format: cell-based
Sequence of Kappa-type opioid receptor (P41145 whole entry): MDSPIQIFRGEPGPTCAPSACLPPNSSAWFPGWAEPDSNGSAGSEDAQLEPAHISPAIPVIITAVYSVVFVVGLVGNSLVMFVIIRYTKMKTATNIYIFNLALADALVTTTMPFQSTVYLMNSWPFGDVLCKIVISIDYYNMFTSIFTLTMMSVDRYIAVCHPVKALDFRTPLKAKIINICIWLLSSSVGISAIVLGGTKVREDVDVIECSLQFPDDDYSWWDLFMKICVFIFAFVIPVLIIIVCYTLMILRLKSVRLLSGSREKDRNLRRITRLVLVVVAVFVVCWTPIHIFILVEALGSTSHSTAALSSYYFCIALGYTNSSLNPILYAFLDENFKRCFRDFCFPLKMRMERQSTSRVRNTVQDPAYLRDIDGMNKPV

[7] = molecular target: Delta-type opioid receptor (Homo sapiens, UniProt P41143); assay: Displacement of [3H]-NTI from delta opioid receptor expressed in CHO cells after 1 hr; format: cell-based
Sequence of Delta-type opioid receptor (P41143 whole entry): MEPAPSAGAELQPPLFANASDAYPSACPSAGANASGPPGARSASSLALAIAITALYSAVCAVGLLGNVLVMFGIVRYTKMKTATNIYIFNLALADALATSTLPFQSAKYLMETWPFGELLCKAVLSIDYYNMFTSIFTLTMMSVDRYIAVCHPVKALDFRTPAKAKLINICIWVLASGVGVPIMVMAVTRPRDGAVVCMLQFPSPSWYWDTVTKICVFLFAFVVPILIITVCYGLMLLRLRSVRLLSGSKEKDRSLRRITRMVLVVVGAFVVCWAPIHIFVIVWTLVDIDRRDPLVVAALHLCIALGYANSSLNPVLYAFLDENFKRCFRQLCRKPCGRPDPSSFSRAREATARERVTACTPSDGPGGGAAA

Mu-type opioid receptor [8] = molecular target: T1, Mu-type opioid receptor; conditions: CHO; 100 nM
Description: Agonist activity against mu opioid receptor expressed in CHO cells assessed as stimulation of [35S]-GTPgammaS binding at 100 nM relative to DAMGO

O=C(Cc1ccncc1)N[C@@H]1CC[C@@]2(O)[C@H]3Cc4ccc(O)c5c4[C@@]2(CCN3CC2CC2)[C@H]1O5
Ratio Ki [1]: 10.6
Ratio Ki [2]: 1020
Ki (Mu-type opioid receptor [3]): 0.85 nM
Emax (Mu-type opioid receptor [4]): 32.8%
EC50 (Mu-type opioid receptor [5]): 2.32 nM
Ki [6]: 9.01 nM
Ki [7]: 866 nM

Cc1cnccc1C(=O)N[C@@H]1CC[C@@]2(O)[C@H]3Cc4ccc(O)c5c4[C@@]2(CCN3CC2CC2)[C@H]1O5
Ratio Ki [1]: 166
Ratio Ki [2]: 470
Ki (Mu-type opioid receptor [3]): 0.58 nM
Emax (Mu-type opioid receptor [4]): 30.6%
EC50 (Mu-type opioid receptor [5]): 1.52 nM
Ki [6]: 96.7 nM
Ki [7]: 274 nM

CN1CCC(C(=O)N[C@@H]2CC[C@@]3(O)[C@H]4Cc5ccc(O)c6c5[C@@]3(CCN4CC3CC3)[C@H]2O6)CC1
Ratio Ki [1]: 7.5
Ratio Ki [2]: 2970
Ki (Mu-type opioid receptor [3]): 0.87 nM
Emax (Mu-type opioid receptor [4]): 37.2%
EC50 (Mu-type opioid receptor [5]): 5.08 nM
Ki [6]: 6.49 nM
Ki [7]: 2590 nM

O=C(N[C@@H]1CC[C@@]2(O)[C@H]3Cc4ccc(O)c5c4[C@@]2(CCN3CC2CC2)[C@H]1O5)c1ccncc1Br
Ratio Ki [1]: 6.3
Ratio Ki [2]: 285
Ki (Mu-type opioid receptor [3]): 0.45 nM
Emax (Mu-type opioid receptor [4]): 23.2%
EC50 (Mu-type opioid receptor [5]): 1.31 nM
Ki [6]: 2.83 nM
Ki [7]: 128 nM

O=C(N[C@@H]1CC[C@@]2(O)[C@H]3Cc4ccc(O)c5c4[C@@]2(CCN3CC2CC2)[C@H]1O5)c1ccnc(Cl)c1
Ratio Ki [1]: 1.5
Ratio Ki [2]: 6110
Ki (Mu-type opioid receptor [3]): 0.1 nM
Emax (Mu-type opioid receptor [4]): 58.2%
EC50 (Mu-type opioid receptor [5]): 0.83 nM
Ki [6]: 0.15 nM
Ki [7]: 602 nM

O=C(CNC(=O)c1ccncc1)N[C@@H]1CC[C@@]2(O)[C@H]3Cc4ccc(O)c5c4[C@@]2(CCN3CC2CC2)[C@H]1O5
Ki (Mu-type opioid receptor [3]): 0.73 nM
Emax (Mu-type opioid receptor [4]): 22.6%
EC50 (Mu-type opioid receptor [5]): 2.84 nM
Ki [6]: 203 nM
Ki [7]: 526 nM

C[C@@H](O)[C@H](NC(=O)[C@H]1NC(=O)[C@H]([C@@H](C)O)NC(=O)[C@H](CCCNC(=N)N)NC(=O)[C@@H](Cc2c[nH]c3ccccc23)NC(=O)[C@H](Cc2ccc(O)cc2)NC(=O)[C@@H](NC(=O)[C@H]2Cc3ccccc3CN2)CSSC1(C)C)C(N)=O
Emax (Mu-type opioid receptor [8]): 1.99%

O=C(CCc1ccncc1)N[C@@H]1CC[C@@]2(O)[C@H]3Cc4ccc(O)c5c4[C@@]2(CCN3CC2CC2)[C@H]1O5
Ratio Ki [1]: 2.9
Ratio Ki [2]: 516
Ki (Mu-type opioid receptor [3]): 0.57 nM
Emax (Mu-type opioid receptor [4]): 22.6%
EC50 (Mu-type opioid receptor [5]): 1.46 nM
Ki [6]: 1.65 nM
Ki [7]: 294 nM

Cc1cc(C(=O)N[C@@H]2CC[C@@]3(O)[C@H]4Cc5ccc(O)c6c5[C@@]3(CCN4CC3CC3)[C@H]2O6)ccn1
Ratio Ki [1]: 1.5
Ratio Ki [2]: 232
Ki (Mu-type opioid receptor [3]): 0.39 nM
Emax (Mu-type opioid receptor [4]): 43.3%
EC50 (Mu-type opioid receptor [5]): 1.13 nM
Ki [6]: 0.58 nM
Ki [7]: 90.1 nM

O=C(N[C@@H]1CC[C@@]2(O)[C@H]3Cc4ccc(O)c5c4[C@@]2(CCN3CC2CC2)[C@H]1O5)c1ccnc(Br)c1
Ratio Ki [1]: 0.3
Ratio Ki [2]: 276
Ki (Mu-type opioid receptor [3]): 0.63 nM
Emax (Mu-type opioid receptor [4]): 50.8%
EC50 (Mu-type opioid receptor [5]): 1.19 nM
Ki [6]: 0.18 nM
Ki [7]: 174 nM

O=C(N[C@@H]1CC[C@@]2(O)[C@H]3Cc4ccc(O)c5c4[C@@]2(CCN3CC2CC2)[C@H]1O5)c1ccncc1Cl
Ratio Ki [1]: 29.6
Ratio Ki [2]: 746
Ki (Mu-type opioid receptor [3]): 0.67 nM
Emax (Mu-type opioid receptor [4]): 24.9%
EC50 (Mu-type opioid receptor [5]): 2.32 nM
Ki [6]: 19.9 nM
Ki [7]: 502 nM
